Columns and labels:
rat MDR1 (mdr1a, P-gp) = test: Transcellular transport in rat mdr1a-transfected LLC-PK1 cells; assay type: in vitro ADME; settings: pH 7.4, mdr1a-LLC-PK1, 5 μM test compound
Method: Digoxin and mannitol were purchased from Sigma-Aldrich (St. Louis, Mo.). 3H-digoxin and 14C-mannitol were purchased from PerkinElmer Life and Analytical Sciences (Boston, Mass.). Transport buffer was prepared using Hank's balanced salt solution (HBSS) supplemented with 10 mM Hepes, pH 7.4 and 0.1% BSA (HHBSS, Invitrogen, Grand Island, N.Y., BSA, Bovine Serum Albumin, Calbiochem, La Jolla, Calif.).
Cultures were incubated at 37° C. in a humidified (95% relative humidity) atmosphere of 5% CO2/95% air. The parental cell line LLC-PK1 (porcine renal epithelial cells) was purchased from American Type Culture Collection (ATCC, Manassas, Va.). Human MDR1 and Sprague-Dawley rat mdra1 transfectants in LLC-PK1 were generated at Amgen (Thousand Oaks, Calif.). Cells were cultured in Medium 199 supplemented with 2 mM L-glutamine, penicillin (50 units/mL), streptomycin (50 μg/mL), and 10% (v/v) fetal bovine serum (all from Invitrogen) (Schinkel et al, 1995).
LLC-PK1, MDR1-LLC-PK1, and mdr1a-LLC-PK1 cell monolayers were seeded onto porous (1.0 μm) polycarbonate 96-well transwell membrane filters (Millipore Corp., Billerica, Mass.) and cultured for six days with one media replacement on day four prior to transwell experiments. Cells were washed once with warmed HHBS prior to transwell experiments. Experiments were initiated by replacing the buffer in each compartment with 0.15 mL of HBSS containing 0.1% BSA with and without 5 μM of test compound in triplicate wells. The plates were incubated for two hours at 37° C. in an EVO incubator with shaking. Aliquots (100 μl) from both donor and receiver chambers were transferred to 96 well plates or scintillation vials. Protein was precipitated by addition of 200 μL acetonitrile containing 0.1% formic acid and prazosin (25 ng/mL) as internal standard. After vortexing and centrifugation at 3000 rpm for 20 min, 150 μL supernatant samples were transferred to a new plate containing 50 μL water for LC-MS/MS analysis. Transcellular transport of 3H-Digoxin was used as a positive control for Pgp. Paracellular permeability of 14C-Mannitol was used to measure the integrity of the monolayer. Sample radioactivity was measured using a liquid scintillation counter (Packard Tri-Carb 2910TR, PerkinElmer).
The apparent permeability coefficient (Papp) of all tested agents was estimated from the slope of cumulative amount (dQ) of the agent vs. time (dt), and the equation: Papp=(dQ/dt)/(A*C0)
where dQ/dt is the penetration rate of the agent […], A is the surface area of the cell layer on the Transwell (0.11 cm2), and CO is the initial concentration of the test compound (μM).

PDE10 = PDE10 (Rattus norvegicus (Rat), UniProt Q9QYJ6); test: PDE10 ex vivo receptor occupancy (RO) screening in rat striatum; settings: oral; for receptor occupancy at 3 mg/kg: 3 mpk, 4 h (footnote C); for receptor occupancy at 10 mg/kg: 10 mpk
Sequence of PDE10 (Q9QYJ6 whole entry): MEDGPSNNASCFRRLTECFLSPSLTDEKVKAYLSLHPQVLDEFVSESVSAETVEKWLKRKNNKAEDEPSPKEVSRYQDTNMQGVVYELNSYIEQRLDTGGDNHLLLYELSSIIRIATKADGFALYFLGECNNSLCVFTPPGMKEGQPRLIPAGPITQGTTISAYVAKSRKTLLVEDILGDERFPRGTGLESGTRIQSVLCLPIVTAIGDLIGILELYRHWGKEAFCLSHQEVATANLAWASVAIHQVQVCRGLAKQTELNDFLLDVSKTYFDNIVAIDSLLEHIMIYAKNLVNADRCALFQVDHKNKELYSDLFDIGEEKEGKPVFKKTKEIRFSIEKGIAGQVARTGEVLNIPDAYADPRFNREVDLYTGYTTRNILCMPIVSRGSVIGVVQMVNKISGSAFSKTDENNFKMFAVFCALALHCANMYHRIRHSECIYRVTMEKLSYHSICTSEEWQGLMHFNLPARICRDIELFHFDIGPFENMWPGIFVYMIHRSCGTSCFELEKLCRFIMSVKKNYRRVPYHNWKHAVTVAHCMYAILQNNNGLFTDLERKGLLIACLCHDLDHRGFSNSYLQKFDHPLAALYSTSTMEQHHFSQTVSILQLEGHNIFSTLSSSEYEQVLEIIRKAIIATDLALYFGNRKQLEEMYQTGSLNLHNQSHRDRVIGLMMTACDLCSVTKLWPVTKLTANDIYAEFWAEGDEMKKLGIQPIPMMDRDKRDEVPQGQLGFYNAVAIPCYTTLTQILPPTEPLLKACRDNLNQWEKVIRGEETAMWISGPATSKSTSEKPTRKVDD
Method: The ex vivo screening protocol was approved by Amgen's Institutional Animal Care and Use Committee (IACUC) and in accordance with the National Institutes of Health Guide for Care and Use of Laboratory Animals in facilities accredited by the Association for the Assessment and Accreditation of Laboratory Animal Care (AALAC).
PDE10 inhibitors were dissolved in 2% Hydroxypropylmethylcellulose (HPMC), 1% Tween-80, pH 2.2 with methanesulfonic acid. Male Sprague Dawley® rats weighing 180-225 g (4 per group) were dosed orally with either vehicle or PDE10 inhibitors (3 mg/kg or 10 mg/kg) and then returned to their home cage to allow for absorption of the compounds. After one hour (with 10 mg/kg PDE10 inhibitor) or four hours (with 3 mg/kg or 10 mg/kg PDE10 inhibitor) rats were sacrificed by CO2 inhalation. Blood was obtained by heart puncture and plasma was frozen and stored at −80° C. for exposure analysis. Brains were removed and immediately frozen in chilled methylbutane, and stored at −80° C. until cutting. Three coronal brain slices per brain containing the striatum were cut at […] using a cryostat and placed onto microscope slides, air-dried and stored at −20° C. For radioligand binding experiments, slides were thawed at room temperature and then incubated with 1 nM a tritium labeled tracer compound (insert citation) in binding buffer (150 mM Phosphate-buffered saline containing 2 mM MgCl2 and 100 mM DTT, pH 7.4) for 1 minute at 4° C. To assess non-specific binding, slides containing adjacent brain sections were incubated in the same solution with addition of […] of an unlabelled, structurally unrelated PDE10 antagonist. Afterwards slides were washed 3 times in ice-cold binding buffer, dipped into distilled water to remove buffer salts, and dried under a stream of cold air. Emission of beta particles from the sections was counted for 8 hours in a Beta Imager 2000 (Biospace, Paris, France) and digitized and analyzed using M3 Vision software (Biospace, Paris, France). Total binding radioactivity in the striatum was measured as cpm/mm^2 in hand-drawn regions of interest and averaged across the three sections per brain. Non-specific binding was subtracted to obtain specific binding values and percent occupancy was calculated by setting vehicle specific binding as 0% occupancy.

human PDE2A1 = human PDE2A1 (Homo sapiens (Human), UniProt O00408); test: PDE2A inhibition, PDE IMAP TR-FRET assay; assay type: biochemical; settings: FAM-cAMP substrate
Sequence of human PDE2A1 (O00408 other isoform, or with tags, fused parts or gaps): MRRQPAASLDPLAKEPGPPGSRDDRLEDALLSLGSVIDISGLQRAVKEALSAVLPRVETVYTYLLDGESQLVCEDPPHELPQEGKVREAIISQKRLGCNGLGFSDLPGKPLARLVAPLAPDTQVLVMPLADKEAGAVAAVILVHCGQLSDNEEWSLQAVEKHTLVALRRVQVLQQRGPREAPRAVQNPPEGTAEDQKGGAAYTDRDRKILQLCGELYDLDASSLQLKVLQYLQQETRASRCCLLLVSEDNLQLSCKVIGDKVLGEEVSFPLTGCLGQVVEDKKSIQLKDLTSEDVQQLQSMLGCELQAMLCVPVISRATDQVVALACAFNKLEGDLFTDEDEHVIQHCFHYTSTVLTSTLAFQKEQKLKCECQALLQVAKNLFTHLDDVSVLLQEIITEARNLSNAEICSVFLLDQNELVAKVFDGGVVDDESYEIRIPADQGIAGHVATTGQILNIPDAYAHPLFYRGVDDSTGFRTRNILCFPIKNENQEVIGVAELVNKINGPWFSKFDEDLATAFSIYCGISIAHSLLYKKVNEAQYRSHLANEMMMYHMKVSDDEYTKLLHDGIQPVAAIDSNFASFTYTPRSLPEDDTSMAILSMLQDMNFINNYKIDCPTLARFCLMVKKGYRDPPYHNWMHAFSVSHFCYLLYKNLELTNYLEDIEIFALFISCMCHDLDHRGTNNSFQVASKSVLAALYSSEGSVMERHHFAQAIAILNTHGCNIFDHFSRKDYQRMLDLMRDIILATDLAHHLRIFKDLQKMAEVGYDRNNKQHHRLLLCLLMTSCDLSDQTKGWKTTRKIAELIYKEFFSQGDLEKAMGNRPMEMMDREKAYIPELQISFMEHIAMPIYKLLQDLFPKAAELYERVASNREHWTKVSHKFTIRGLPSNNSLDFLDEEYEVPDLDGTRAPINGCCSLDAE
Method: Purified human PDE2A1 and PDE10A2 enzymes were obtained from BPS Bioscience (San Diego, Calif.). IMAP™ TR-FRET progressive binding system, FAM-cAMP substrate were from Molecular Devices (Sunnyvale, Calif.).
The PDE IMAP assay was conducted in a 384-well black Greiner polypropylene plate (Sigma, St. Louis, Mo.). PDE inhibitors were serial diluted in 100% DMSO and dispensed into assay plate at […] per well using Echo® Liquid Handling System from LABCYTE. Ten μL of PDE enzyme in IMAP reaction buffer (10 mM Tris-HCl, pH 7.2, 10 mM MgCl2, 0.05% NaN3, and 0.01% Tween-20) was added into the assay wells. The PDE enzyme concentration used was based on each lot of enzyme activity, to ensure enzyme reaction falls in a linear range under assay condition. 1.4 nM of PDE2 or […] PDE10 were used in the assay system. Enzyme was pre-incubated with inhibitors for 60 minutes at room temperature before addition of 10 uL of substrate addition, which results in 100 nM of FAM-cAMP in the reaction. Enzyme reaction was allowed to proceed at room temperature for 90 min, and the reaction is stopped by 55 μl addition of binding reagent according to manufacturer's recommendation. The mixture is further incubated at room temperature for additional 4 hours, and signal was read on an Envision multimode reader (PerkinElmer). Fluorescence signals were measured at 520 nm and 485 nm. The signal ratio at 520/485 nm corresponded to the generation of reaction product of AMP, and it was used in all data analysis. Values from DMSO-treated wells were normalized to POC=100, and no-enzyme wells were normalized to POC=0. IC50 values were determined by using the Genedata Screener V9.0.1. The curve fitting algorithm used for dose response data analysis in Genedata Screener is a custom implementation of a robust curve-fitting algorithm called ROUT (Robust regression with outlier detection) and uses a four-parameter logistical (4 PL) Hill model.

efflux ratio at 2 h, 5 μM (rat MDR1 (mdr1a, P-gp)) | receptor occupancy at 3 mg/kg (PDE10) [%] | receptor occupancy at 10 mg/kg (PDE10; 4 h (footnote B)) [%] | IC50 (human PDE2A1) [µM] | receptor occupancy at 10 mg/kg (PDE10; 1 h (footnote A)) [%] | Compound
1.2 | 67.5 | 80 | 10 | – | CNC(=O)c1ccc(-c2nccnc2C2CN(c3ncc4cc(F)ccc4n3)C2)cc1F [Example 11, 2-Fluoro-4-(3-(1-(6-Fluoroquinazolin-2-Yl)Azetidin-3-Yl)Pyrazin-2-Yl)-N-Methylbenzamide]
2.7 | 61.8 | 87.1 | 10 | 123 | CNC(=O)c1ccc(-c2nccnc2C2CN(c3ncc4ccc(F)cc4n3)C2)cc1F [Example 9, 2-Fluoro-4-(3-(1-(7-Fluoroquinazolin-2-Yl)Azetidin-3-Yl)Pyrazin-2-Yl)-N-Methylbenzamide]
2.3 | 68.3 | – | 10 | – | CNC(=O)c1ccc(-c2nccnc2C2CCN(c3ccc4cccc(F)c4n3)CC2)cc1F [Example 5, 2-Fluoro-4-(3-(1-(8-Fluoroquinolin-2-Yl)Piperidin-4-Yl)Pyrazin-2-Yl)-N-Methylbenzamide]
1.1 | 78.5 | – | 10 | – | CNC(=O)c1ccc(-c2nccnc2C2CN(c3ccc4ncc(Cl)cc4n3)C2)cc1F [Example 14, 4-(3-(1-(7-Chloro-1,5-Naphthyridin-2-Yl)Azetidin-3-Yl)Pyrazin-2-Yl)-2-Fluoro-N-Methylbenzamide]
3.1 | 110 | – | 10 | 93.2 | CNC(=O)c1ccc(-c2nccnc2C2CN(c3ccc4ccccc4n3)C2)cc1F [Example 7, 2-Fluoro-N-Methyl-4-(3-(1-(Quinolin-2-Yl)Azetidin-3-Yl) Pyrazin-2-Yl)Benzamide]
2.7 | 77 | – | 10 | – | CNC(=O)c1ccc(-c2nccnc2C2CN(c3ccc4cc(F)ccc4n3)C2)cc1F [Example 13, 2-Fluoro-4-(3-(1-(6-Fluoroquinolin-2-Yl)Azetidin-3-Yl) Pyrazin-2-yl)-N-Methylbenzamide]
1.2 | 62.6 | – | 10 | 85.4 | CNC(=O)c1ccc(-c2nccnc2C2CN(c3ncc4ccccc4n3)C2)cc1F [Example 6, 2-Fluoro-N-Methyl-4-(3-(1-(Quinazolin-2-Yl)Azetidin-3-Yl)Pyrazin-2-Yl)Benzamide]
2.5 | 83.5 | – | 10 | 134 | CNC(=O)c1ccc(-c2nccnc2C2CN(c3ccc4ccc(F)cc4n3)C2)cc1F [Example 8, 2-Fluoro-4-(3-(1-(7-Fluoroquinolin-2-Yl)Azetidin-3-Yl) Pyrazin-2-Yl)-N-Methylbenzamide]
2.8 | 91.4 | – | 10 | – | CNC(=O)c1ccc(-c2nccnc2C2CN(c3ncc4cc(F)c(Cl)cc4n3)C2)cc1F [Example 12, 4-(3-(1-(7-Chloro-6-Fluoroquinazolin-2-Yl)Azetidin-3-Yl)Pyrazin-2-Yl)-2-Fluoro-N-Methylbenzamide]
2.3 | 58.8 | 79 | 10 | – | CNC(=O)c1ccc(-c2nccnc2C2CCN(c3ccc4ccc(Cl)cc4n3)CC2)cc1F [Example 1, 4-(3-(1-(7-Chloroquinolin-2-Yl)Piperidin-4-Yl)Pyrazin-2-Yl)-2-Fluoro-N-Methylbenzamide]
2.2 | 93.3 | – | 10 | – | CNC(=O)c1ccc(-c2nccnc2C2CCN(c3ccc4cc(F)ccc4n3)CC2)cc1F [Example 4, 2-Fluoro-4-(3-(1-(6-Fluoroquinolin-2-Yl)Piperidin-4-Yl)Pyrazin-2-Yl)-N-Methylbenzamide]
2.1 | 97.4 | – | 10 | – | CNC(=O)c1ccc(-c2nccnc2C2CCN(c3ccc4ccccc4n3)CC2)cc1F [Example 3, 2-Fluoro-N-Methyl-4-(3-(1-(Quinolin-2-Yl)Piperidin-4-Yl)Pyrazin-2-Yl)Benzamide]
2.7 | – | 112 | 10 | – | CNC(=O)c1ccc(-c2nccnc2C2CCN(c3ccc4ccc(F)cc4n3)CC2)cc1F [Example 2, 2-Fluoro-4-(3-(1-(7-Fluoroquinolin-2-Yl)Piperidin-4-Yl) Pyrazin-2-Yl)-N-Methylbenzamide]
1.2 | 108 | – | 7.38 | 101 | CNC(=O)c1ccc(-c2nccnc2C2CN(c3ncc4ccc(Cl)cc4n3)C2)cc1F [Example 10, 4-(3-(1-(7-Chloroquinazolin-2-Yl)Azetidin-3-Yl)Pyrazin-2-Yl)-2-Fluoro-N-Methylbenzamide]
